{"source": "patent US20230212202A1", "about": "“TREATMENT OF MGMT DEFICIENT CANCER WITH 2-FLUOROETHYL-SUBSTITUTED NITROSOUREAS AND OTHER COMPOUNDS” (YALE UNIVERSITY, priority 2021, published 2023)", "key": {"[1]": {"conditions": "37° C., pH 7.4; cited from earlier work"}, "[2]": {"tested_on": "linearized pUC19 plasmid DNA", "assay": "Melting temperature assay", "assay_type": "biochemical", "conditions": "100 or 500 µM, 3 h"}, "[3]": {"tested_on": "LN229 human brain glioblastoma cells MGMT+ MMR-", "assay": "Anticancer activity towards LN229 cells (Example 15)", "assay_type": "cell-based", "conditions": "read-out: MGMT+ MMR -Activity", "procedure": "(§1) LN229 quad cells were maintained in Dulbecco’s Modified Eagle Medium (DMEM) supplemented with 10% fetal bovine serum. Cells were plated into sterile black with glass bottom 384-well plates (Cellvis) at a concentration of 1,000 cells/well (20 µL total volume) using a MultiDrop (Thermo Fisher). Then, assay plates were centrifuged at 300 rpm for 2 seconds and incubated overnight in a 37° C. 5% CO2 incubator. Compounds were prepared as 100 mM stocks in DMSO and stored protected from light at -20′C until use. Prior to compound addition, the stock solutions of compound were diluted two-fold serially in DMSO from 100 mM down to 0.05 mM in a 384-well Source plate. Vehicle control wells containing DMSO and positive control wells containing 10 mM bortezomib were also added to the Source plate. An aliquot in the amount of 40 nL of compound stock solution or DMSO vehicle was transferred from the source plate to the cell assay plate using an Echo Acoustic dispense (Beckman). Three replicate dilution curves of each compound were run on each assay plate. An aliquot in the amount of 120 nL of a 10 mM bortezomib solution was transferred to the positive control wells resulting in a final concentration of 60 µM. The final concentration of compounds ranged from 200 µM to 0.1 µM (12-point, 2-fold dilution dose response curve), and the final DMSO concentration was 0.2%.\n(§2) Assay plates were centrifuged at 500 rpm for 2 seconds and incubated for 120 hours at 37° C. in a humidified 5% CO2 incubator. Following incubation, cells were fixed with 4% paraformaldehyde and stained with DAPI for nuclei visualization. The images were acquired on the InCell 2200 high content imager (GE, now […]), and quantified using InCell Analyzer image analysis software. Z prime factor, signal-to-background and coefficient of variation were calculated for each assays plate using mean and standard deviation values of the negative (vehicle) and positive (bortezomib) control wells to ensure assay robustness. Raw cell count data for test compounds was normalized to percent viability relative to the DMSO vehicle control. Data was plotted in GraphPad Prism using a variable slope 4-parameter fit."}, "[4]": {"tested_on": "LN229 human brain glioblastoma cells MGMT- MMR+", "assay": "Anticancer activity towards LN229 cells (Example 15)", "assay_type": "cell-based", "conditions": "read-out: MGMT -MMR + Activity", "procedure": "as §1, §2"}, "[5]": {"tested_on": "LN229 human brain glioblastoma cells MGMT+ MMR+", "assay": "Anticancer activity towards LN229 cells (Example 15)", "assay_type": "cell-based", "conditions": "read-out: MGMT+ MMR+ Activity", "procedure": "as §1, §2"}, "[6]": {"tested_on": "LN229 human brain glioblastoma cells MGMT- MMR-", "assay": "Anticancer activity towards LN229 cells (Example 15)", "assay_type": "cell-based", "conditions": "read-out: MGMT -MMR-Activity", "procedure": "as §1, §2"}, "[7]": {"tested_on": "LN229 MGMT+/-, MMR+/- cells", "assay": "Short-term cell viability assay, four isogenic LN229 glioblastoma cell lines", "assay_type": "cell-based, human"}, "[8]": {"tested_on": "LN229 MGMT-/MMR- cells", "assay": "IR alkaline comet assay", "assay_type": "cell-based, human", "conditions": "200 µM, 2-24 h"}, "[9]": {"tested_on": "LN229 MGMT-/MMR+ cells", "assay": "IR alkaline comet assay", "assay_type": "cell-based, human"}, "[10]": {"tested_on": "PEO4 (BRCA2+) and PEO1 (BRCA2-/-) cells", "assay": "Short-term viability assay with or without O6BG", "assay_type": "cell-based, human", "conditions": "for therapeutic index (TI): PEO1/4 model; for sensitivity of BRCA2-/- cells: PEO1/PEO4, ±O6BG"}, "[11]": {"tested_on": "DLD1 BRCA2+/- and BRCA2-/- cells", "assay": "Short-term viability assay with or without O6BG", "assay_type": "cell-based, human", "conditions": "for sensitivity of BRCA2-/- cells: DLD1, ±O6BG; for therapeutic index (TI), ratio of IC50 values in MGMT+/BRCA2+ cells compared to MGMT-/BRCA2- cells: DLD1 isogenic model"}, "[12]": {"tested_on": "PD20 cells, FANCD2-/- or +FANCD2", "assay": "Short-term viability assay", "assay_type": "cell-based, human", "conditions": "PD20 FANCD2-/- vs +FANCD2"}, "[13]": {"tested_on": "LN229 MGMT-/MMR- flank tumors", "assay": "Xenograft flank tumor model", "assay_type": "in vivo, mouse", "conditions": "5 mg/kg MWF × 3 weeks"}, "[14]": {"tested_on": "DLD1 MSH6-deficient cells", "assay": "Short-term viability assay with or without O6BG", "assay_type": "cell-based, human", "conditions": "with or without O6BG-induced MGMT depletion", "text": "(§3) Short-term Cell Viability Assay."}, "[15]": {"tested_on": "HCT116 MLH1-/- cells or HCT116 +Chr3 cells", "assay": "Short-term viability assay with or without O6BG", "assay_type": "cell-based, human", "text": "as §3"}, "[16]": {"tested_on": "LN229 MGMT-/MMR- cells", "assay": "Short-term cell viability assay", "assay_type": "cell-based, human", "conditions": "LN229 MGMT-/MMR- cells"}, "[17]": {"tested_on": "LN229 MGMT+/-, MMR+/- cells", "assay": "Clonogenic survival assay", "assay_type": "cell-based, human", "procedure": "Clonogenic Cell Survival Assay. Cells were trypsinized, washed, counted, and diluted in a medium containing various concentrations of drug. They were then immediately seeded in six-well plates in triplicate at three-fold dilutions, ranging from 9000 to 37 cells per well. Depending on colony size, these plates were kept in the incubator for 10 to 14 days. After incubation, colonies were washed in phosphate-buffered saline (PBS), stained with crystal violet, counted, and quantified."}, "[18]": {"conditions": "Homo sapiens, LN-229, 120 hours"}}, "note": "“And” between values parts separate entries of the source, which are not always exact repeats. Equal values may be shown once. Read-outs that look alike come from different tables or passages of the source."}
{"compound": "Nc1nc(OCCCl)c2ncn([C@@H]3O[C@H](CO)[C@@H](O)[C@H]3O)c2n1", "note": "[Compound S4, O^6-(2-chloroethyl)guanosine]", "values": [{"measurement": "half-life of hydrolysis", "setting": "[1]", "result": "~ 18 min"}]}
{"compound": "COS(C)(=O)=O", "note": "[MMS, Methylmethane sulfonate, reference compound]", "values": [{"measurement": "DNA melting temperature", "setting": "[2]", "result": "comparable changes in measured DNA melting temperature"}]}
{"compound": "CCOP(=O)(OCC)C(C)NC(=O)N(CCF)N=O", "note": "(centres unmarked)", "values": [{"measurement": "IC50", "setting": "[3]; 120 hours", "result": "> 90", "unit": "µM"}, {"measurement": "IC50", "setting": "[4]; 120 hours", "result": "> 90", "unit": "µM"}, {"measurement": "IC50", "setting": "[5]; 120 hours", "result": "> 90", "unit": "µM"}, {"measurement": "IC50", "setting": "[6]; 120 hours", "result": "< 50", "unit": "µM"}]}
{"compound": "O=NN(CCF)C(=O)NCCCl", "values": [{"measurement": "IC50", "setting": "[3]; Homo sapiens, LN-229, 120 h", "result": "> 90", "unit": "µM"}, {"measurement": "IC50", "setting": "[4]; Homo sapiens, LN-229, 120 h", "result": "50 to 90", "unit": "µM"}, {"measurement": "IC50", "setting": "[5]; Homo sapiens, LN-229, 120 h", "result": "> 90", "unit": "µM"}, {"measurement": "IC50", "setting": "[6]; Homo sapiens, LN-229, 120 h", "result": "< 50", "unit": "µM"}]}
{"compound": "NC(=O)c1nc[nH]c1/N=N/NCCCF", "note": "[Compound 11]", "values": [{"measurement": "activity in the four LN229 cell lines", "setting": "[7]; MGMT+/-, MMR+/-", "result": "low activity in all four cell lines"}]}
{"compound": "NC(=O)c1ncn2c(=O)n(CCCl)nnc12", "note": "[MTZ, mitozolomide, reference compound]", "values": [{"measurement": "DNA damage in unirradiated samples, time course", "setting": "[8]; 0 Gy", "result": "maximal damage at 2 h"}, {"measurement": "DNA mobility after IR, time course", "setting": "[8]; 10 Gy", "result": "reduced DNA mobility within 2 h"}, {"measurement": "selectivity for MGMT-deficient cells", "setting": "[7]; LN229, listed as 12a", "result": "~ 7 fold"}]}
{"compound": "O=NN(CCF)C(=O)NC1CCCCC1", "values": [{"measurement": "IC50", "setting": "[3]; [18]", "result": "50 to 90", "unit": "µM"}, {"measurement": "IC50", "setting": "[4]; [18]", "result": "< 50", "unit": "µM"}, {"measurement": "IC50", "setting": "[5]; [18]", "result": "> 90", "unit": "µM"}, {"measurement": "IC50", "setting": "[6]; [18]", "result": "< 50", "unit": "µM"}]}
{"compound": "CO[C@@]12[C@H](COC(N)=O)C3=C(C(=O)C(C)=C(N)C3=O)N1C[C@@H]1N[C@@H]12", "note": "[MMC, Mitomycin C]", "values": [{"measurement": "IR-induced comet tail (ICL detection)", "setting": "[9]; 0.1 µM, 24 h", "result": "partial reduction in the IR-induced comet tail"}, {"measurement": "IR-induced comet tail (ICL detection)", "setting": "[9]; 50 µM, 2 h", "result": "completely abolished the IR-induced comet tail"}, {"measurement": "comet tailing in the absence of IR", "setting": "[9]; TMZ, KL-50 200 µM, MMC 0.1 or 50 µM", "result": "did not"}, {"measurement": "therapeutic index (TI)", "setting": "[10]", "result": 7, "unit": "fold"}, {"measurement": "sensitivity of BRCA2-/- cells", "setting": "[10]", "result": "hypersensitivity of PEO4 BRCA2-/-cells to crosslinking agents independent of MGMT depletion"}, {"measurement": "sensitivity of BRCA2-/- cells", "setting": "[11]", "result": "hypersensitivity of DLD1 BRCA2-/- cells to crosslinking agents independent of MGMT depletion"}, {"measurement": "therapeutic index (TI), ratio of IC50 values in MGMT+/BRCA2+ cells compared to MGMT-/BRCA2- cells", "setting": "[11]", "result": 26, "unit": "fold"}, {"measurement": "sensitivity of FANCD2-deficient cells", "setting": "[12]", "result": "hypersensitivity to crosslinking agents in FANCD2-/-cells"}]}
{"compound": "N.N.[Cl][Pt][Cl]", "note": "[cisplatin]", "values": [{"measurement": "therapeutic index (TI)", "setting": "[10]", "result": 13, "unit": "fold"}, {"measurement": "sensitivity of BRCA2-/- cells", "setting": "[10]", "result": "hypersensitivity of PEO4 BRCA2-/-cells to crosslinking agents independent of MGMT depletion"}, {"measurement": "sensitivity of BRCA2-/- cells", "setting": "[11]", "result": "hypersensitivity of DLD1 BRCA2-/- cells to crosslinking agents independent of MGMT depletion"}, {"measurement": "therapeutic index (TI), ratio of IC50 values in MGMT+/BRCA2+ cells compared to MGMT-/BRCA2- cells", "setting": "[11]", "result": 42, "unit": "fold"}, {"measurement": "sensitivity of FANCD2-deficient cells", "setting": "[12]", "result": "hypersensitivity to crosslinking agents in FANCD2-/-cells"}]}
{"compound": "Nc1nc(OCCF)c2ncn([C@@H]3O[C@H](CO)[C@@H](O)[C@H]3O)c2n1", "note": "[Compound S1, O^6-(2-fluoroethyl)guanosine]", "values": [{"measurement": "half-life of hydrolysis", "setting": "[1]", "result": "18.5 h and ~ 18.5 h"}]}
{"compound": "Cn1nnc2c(C(N)=O)ncn2c1=O", "note": "[TMZ, temozolomide, reference compound]", "values": [{"measurement": "tumor growth", "setting": "[13]; P.O.", "result": "no efficacy"}, {"measurement": "median OS", "setting": "[13]; Kaplan-Meier", "result": 10, "unit": "weeks"}, {"measurement": "activity in DLD1 cells", "setting": "[14]", "result": "inactive"}, {"measurement": "activity in HCT116 cells", "setting": "[15]", "result": "inactive"}, {"measurement": "IC50", "setting": "[16]; Homo sapiens, LN-229, read-out: IC50", "result": 838, "unit": "µM"}]}
{"compound": "CC(F)CN/N=N/c1[nH]cnc1C(N)=O", "note": "(centres unmarked) [Compound 10]", "values": [{"measurement": "potency in MGMT-/MMR- cells", "setting": "[16]", "result": "reduced potency"}]}
{"compound": "Cc1ncc(CNC(=O)N(CCF)N=O)c(N)n1", "values": [{"measurement": "IC50", "setting": "[3]; [18]", "result": "> 90", "unit": "µM"}, {"measurement": "IC50", "setting": "[4]; [18]", "result": "> 90", "unit": "µM"}, {"measurement": "IC50", "setting": "[5]; [18]", "result": "> 90", "unit": "µM"}, {"measurement": "IC50", "setting": "[6]; Homo sapiens, LN-229, 120 h", "result": "< 50", "unit": "µM"}]}
{"compound": "O=NN(CCCl)C(=O)NC1CCCCC1", "note": "[Lomustine, lomustine, reference compound]", "values": [{"measurement": "clonogenic survival, MGMT+ cells", "setting": "[17]; LN229 MGMT+ cells", "result": "cytotoxic to MGMT+ cells"}, {"measurement": "clonogenic survival, MGMT- cells", "setting": "[17]; LN229 MGMT- cells, MMR+/-", "result": "effective in MMR- cells"}]}
